Assay results taken from ChEMBL document CHEMBL1201862, “PubChem BioAssay data set” (2004).
The source made the active and inactive calls.

Columns and labels:
Protein RecA = target: T1, Protein RecA (Mycobacterium tuberculosis, UniProt P9WHJ3); assay: Fluorescence Cell-Free Homogeneous Dose Retest to Identify Inhibitors of RecA-Intein Splicing Activity. [Related pubchem assays (depositor defined):AID2097, AID2223, AID489010, AID492950]; type: functional
T1 sequence (P9WHJ3 whole entry): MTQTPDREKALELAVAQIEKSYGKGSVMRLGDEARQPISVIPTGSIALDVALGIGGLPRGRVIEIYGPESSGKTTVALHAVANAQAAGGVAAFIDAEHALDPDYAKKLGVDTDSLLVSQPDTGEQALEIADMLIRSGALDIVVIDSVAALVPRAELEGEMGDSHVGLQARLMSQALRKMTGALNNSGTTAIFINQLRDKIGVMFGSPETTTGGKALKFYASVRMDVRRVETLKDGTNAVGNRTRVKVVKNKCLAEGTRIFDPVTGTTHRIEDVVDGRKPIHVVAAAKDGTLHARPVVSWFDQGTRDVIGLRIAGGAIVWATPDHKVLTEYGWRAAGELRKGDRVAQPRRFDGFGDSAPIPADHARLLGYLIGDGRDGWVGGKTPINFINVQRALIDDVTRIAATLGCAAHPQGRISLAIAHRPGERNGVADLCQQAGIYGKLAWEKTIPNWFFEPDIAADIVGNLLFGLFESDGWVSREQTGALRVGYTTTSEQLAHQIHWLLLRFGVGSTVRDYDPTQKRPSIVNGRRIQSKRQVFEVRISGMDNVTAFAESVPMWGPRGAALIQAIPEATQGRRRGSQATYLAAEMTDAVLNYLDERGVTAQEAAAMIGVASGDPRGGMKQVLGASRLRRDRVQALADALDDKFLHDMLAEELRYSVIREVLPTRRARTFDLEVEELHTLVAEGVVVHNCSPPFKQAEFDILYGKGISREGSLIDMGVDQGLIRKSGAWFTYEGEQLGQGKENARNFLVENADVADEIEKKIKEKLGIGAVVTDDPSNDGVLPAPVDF

[1] = cytotoxicity in KRAS-transformed pancreatic duct cells, primary screen, cell-based, fluorescence, HTS (AID 431); type: functional; conditions: Homo sapiens;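 note: cell line used: HPDE-C7K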
[2] = target: Sphingosine 1-phosphate receptor 4 (Homo sapiens, UniProt O95977); assay: Fluorescence dose response cell-based high throughput screening assay for antagonists of the Sphingosine 1-Phosphate Receptor 4 (S1P4). [Related pubchem assays: 1524 (Confirmation in triplicates.), 1510 (Primary screen.)]; type: functional
[3] = inhibitors of intracellular T. cruzi replication, confirmation, NIH3T3 host cells, beta-gal luminescence (AID 2044); type: functional, cell-based;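 note: intracellular parasites grown in NIH/3T3 mouse fibroblasts as host cells; luminescent beta-galactosidase reporter signal from transgenic T. cruzi replicating inside host cells; inhibitors lower the luminescence signal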
[4] = target: Sphingosine 1-phosphate receptor 1 (Homo sapiens, UniProt P21453); type: functional;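 note: Tango beta-arrestin reporter U2OS cells stimulated with S1P near its EC80; inhibitor potency meaning antagonism of receptor activation by the natural agonist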
[5] = cytotoxicity toward NIH3T3 fibroblasts, dose response, counter-screen, cell-based, ATP luminescence, mouse fibroblasts (AID 2010); type: functional;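 note: cells exposed to compound for about 90 hours before reading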
[6] = microbe, parasite or virus in culture; type: functional; conditions: Mycobacterium tuberculosis
[7] = target: T2, Replicative DNA helicase DnaB (Mycobacterium tuberculosis, UniProt P9WMR3); assay: DnaB intein splicing inhibitors, dose response, biochemical, cell-free fluorescence (AID 449749); type: functional
T2 sequence (P9WMR3 whole entry): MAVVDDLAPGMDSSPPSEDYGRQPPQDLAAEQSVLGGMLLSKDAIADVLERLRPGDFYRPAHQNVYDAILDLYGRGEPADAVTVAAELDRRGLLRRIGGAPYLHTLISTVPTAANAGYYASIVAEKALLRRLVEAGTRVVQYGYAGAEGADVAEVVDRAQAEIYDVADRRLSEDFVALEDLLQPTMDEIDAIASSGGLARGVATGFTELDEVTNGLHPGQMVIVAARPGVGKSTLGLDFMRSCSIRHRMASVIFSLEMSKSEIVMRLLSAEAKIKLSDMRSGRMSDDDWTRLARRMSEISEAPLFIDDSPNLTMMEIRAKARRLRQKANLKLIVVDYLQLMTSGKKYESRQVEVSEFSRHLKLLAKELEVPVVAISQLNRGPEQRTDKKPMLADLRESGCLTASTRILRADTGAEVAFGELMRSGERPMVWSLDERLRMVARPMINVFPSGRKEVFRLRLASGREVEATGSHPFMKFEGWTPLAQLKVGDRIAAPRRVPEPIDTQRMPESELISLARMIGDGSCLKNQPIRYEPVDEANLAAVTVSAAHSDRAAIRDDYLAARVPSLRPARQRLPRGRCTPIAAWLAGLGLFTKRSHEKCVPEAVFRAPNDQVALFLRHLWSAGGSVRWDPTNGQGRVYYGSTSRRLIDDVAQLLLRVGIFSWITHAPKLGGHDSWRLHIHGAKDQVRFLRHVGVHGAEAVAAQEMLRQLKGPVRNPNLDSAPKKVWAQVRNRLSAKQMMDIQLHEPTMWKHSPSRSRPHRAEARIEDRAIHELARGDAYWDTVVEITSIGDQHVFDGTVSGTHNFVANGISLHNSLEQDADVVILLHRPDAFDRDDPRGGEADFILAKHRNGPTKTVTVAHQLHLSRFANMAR

[8] = control 3'UTR Renilla luciferase suppression, dose response, counter-screen for Shn3 inhibitor project, cell-based, Clone20-Shn3RL, cherry-picked (AID 624133); type: functional
[9] = HepG2 cell cytotoxicity, dose response, cytotoxicity control for Shn3 inhibitor project, CellTiter-Glo, cherry-picked (AID 624134); type: functional, cell-based
[10] = Shn3 3'UTR reporter inhibitors, dose response, cell-based, Clone20 osteoblasts, firefly luciferase, cherry-picked (AID 624132); type: functional;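 note: firefly luciferase luminescence from reporter carrying the Shn3 3'UTR in osteoblasts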
[11] = cytotoxicity in HPDE-C7 cells, cell-based, fluorescence, HTS (AID 430); type: functional; conditions: Homo sapiens
[12] = target: T3, Heat shock factor protein 1 (Mus musculus, UniProt P38532); assay: inhibition of MG132-induced HSE-luciferase signal, confirmation, cell-based, NIH3T3, luminescence, dose retest (AID 2382); type: functional;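 note: NIH3T3 fibroblasts with HSF1-driven luciferase reporter stressed by proteasome inhibitor MG132; luminescence from HSF1-driven luciferase expression after 8 hours of MG132 stress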
T3 sequence (P38532 whole entry): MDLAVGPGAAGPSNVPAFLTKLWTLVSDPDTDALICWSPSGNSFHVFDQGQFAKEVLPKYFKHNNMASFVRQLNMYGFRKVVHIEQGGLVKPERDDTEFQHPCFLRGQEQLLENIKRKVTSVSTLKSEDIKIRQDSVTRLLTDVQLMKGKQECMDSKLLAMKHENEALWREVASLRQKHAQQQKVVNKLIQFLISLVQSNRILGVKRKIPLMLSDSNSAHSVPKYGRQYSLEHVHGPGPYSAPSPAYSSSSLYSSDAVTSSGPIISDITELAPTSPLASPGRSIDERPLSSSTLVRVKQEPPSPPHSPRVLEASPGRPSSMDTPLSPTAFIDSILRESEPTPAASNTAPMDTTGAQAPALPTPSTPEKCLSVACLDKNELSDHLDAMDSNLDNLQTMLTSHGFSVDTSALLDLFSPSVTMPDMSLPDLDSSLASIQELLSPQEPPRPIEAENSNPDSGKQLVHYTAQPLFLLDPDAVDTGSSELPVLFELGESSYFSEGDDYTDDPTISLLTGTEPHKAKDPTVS

Beta Lactamase = Beta Lactamase (Pseudomonas aeruginosa, UniProt Q932Y6); assay: beta-lactamase reporter inhibitor potency, dose response, artefact control for TLR9-MyD88 binding inhibitor project, BLA reporter cells, FRET fluorescence (AID 588341); type: cell-based;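 note: cell based assay in CHO-K1 cells stably expressing beta-lactamase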
CHO = assay: cytotoxicity in TLR9-MyD88 CHO cells, dose response, cytotoxicity control for TLR9-MyD88 binding inhibitor project, cell-based, luminescence (AID 588339); type: functional, hamster; conditions: Cricetulus griseus;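 note: CHO cells stably coexpressing TLR9 and MyD88 fusions from primary screen; compound exposure lasted 48 hours before viability readout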
[13] = target: DNA damage-inducible transcript 3 protein (Mus musculus, UniProt P35639); type: functional, Cricetulus griseus
[14] = HeLa 4N DNA content increase, dose response, cell-based, IC50 (AID 1117351); type: functional
[15] = half-maximal inhibitory concentration for glucagon-like peptide-1 release, STC-1 cell line, dose-response (AID 1117345); type: functional, cell-based
[16] = Glucagon-like peptide 1 release potency, NCI-H716 cell line, dose-response, half-maximal inhibitory concentration (AID 1117344); type: functional, cell-based
Insulin-degrading enzyme [17] = target: T4, Insulin-degrading enzyme (Homo sapiens, UniProt P14735); assay: activators of endogenous IDE in HEK cells, dose response, cell-based, fluorescence polarization (AID 588439); type: functional
T4 sequence (P14735 whole entry): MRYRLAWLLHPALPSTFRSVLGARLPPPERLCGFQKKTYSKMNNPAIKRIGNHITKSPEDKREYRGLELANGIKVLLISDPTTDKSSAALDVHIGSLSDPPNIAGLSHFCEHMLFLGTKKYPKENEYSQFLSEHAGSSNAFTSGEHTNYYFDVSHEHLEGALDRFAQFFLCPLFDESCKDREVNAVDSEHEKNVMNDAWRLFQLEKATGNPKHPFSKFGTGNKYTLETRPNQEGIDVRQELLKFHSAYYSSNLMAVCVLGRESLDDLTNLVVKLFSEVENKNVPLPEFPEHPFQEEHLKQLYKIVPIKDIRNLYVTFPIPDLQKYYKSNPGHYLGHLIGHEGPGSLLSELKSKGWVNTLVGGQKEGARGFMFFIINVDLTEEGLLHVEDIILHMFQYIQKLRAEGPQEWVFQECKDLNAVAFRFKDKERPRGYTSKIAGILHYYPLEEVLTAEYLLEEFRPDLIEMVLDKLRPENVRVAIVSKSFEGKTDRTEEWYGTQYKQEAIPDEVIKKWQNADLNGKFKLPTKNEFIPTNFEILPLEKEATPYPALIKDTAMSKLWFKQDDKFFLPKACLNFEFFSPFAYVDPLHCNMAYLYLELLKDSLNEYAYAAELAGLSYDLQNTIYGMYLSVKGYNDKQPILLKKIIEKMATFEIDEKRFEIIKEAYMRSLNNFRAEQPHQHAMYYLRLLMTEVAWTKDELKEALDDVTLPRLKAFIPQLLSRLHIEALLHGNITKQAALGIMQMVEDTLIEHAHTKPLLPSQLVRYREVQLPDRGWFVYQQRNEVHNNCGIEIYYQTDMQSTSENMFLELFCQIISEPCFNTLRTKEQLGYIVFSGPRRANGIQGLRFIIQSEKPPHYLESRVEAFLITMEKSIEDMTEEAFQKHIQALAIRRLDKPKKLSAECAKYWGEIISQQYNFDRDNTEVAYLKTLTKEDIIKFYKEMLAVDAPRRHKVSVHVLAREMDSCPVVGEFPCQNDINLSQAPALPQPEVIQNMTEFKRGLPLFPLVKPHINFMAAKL

HEK293 [18] = assay: HEK cell cytotoxicity by LDH release, dose response, cytotoxicity control for IDE activator project, fluorescence, HEK cells (AID 588440); type: functional, cell-based; conditions: Homo sapiens;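 note: cytotoxicity by LDH release measuring loss of membrane integrity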
[19] = HeLa 2N DNA content increase, dose response, cell-based, IC50 (AID 1117349); type: functional
[20] = target: Apoptotic protease-activating factor 1 (Homo sapiens, UniProt O14727); type: functional
Large T antigen = Large T antigen (Simian virus 40, UniProt P03070); type: functional, Betapolyomavirus macacae;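 note: Confirmatory-stage PubChem screen for compounds that inhibit SV40 T antigen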
[21] = target: Heat shock protein HSP 90-alpha (Homo sapiens, UniProt P07900); type: functional, organism-based
HEK293 [22] = assay: optical interference in Abeta FP readout, dose response, artefact control for IDE activator project, biochemical, fluorescence polarization (AID 588442); type: functional, cell-based; conditions: Homo sapiens
Bcl-2-related protein A1 = target: T5, Bcl-2-related protein A1 (Mus musculus, UniProt Q07440); type: functional;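 note: confirmatory dose–response counterscreen on Bfl-1, used to check hits from a UBC13 polyubiquitin inhibitor campaign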
T5 sequence (Q07440 whole entry): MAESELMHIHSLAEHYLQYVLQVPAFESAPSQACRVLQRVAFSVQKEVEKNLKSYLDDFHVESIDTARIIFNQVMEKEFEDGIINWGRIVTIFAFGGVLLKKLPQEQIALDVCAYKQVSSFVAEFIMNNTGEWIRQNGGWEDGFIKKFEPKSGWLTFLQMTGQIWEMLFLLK

[23] = target: Dual specificity tyrosine-phosphorylation-regulated kinase 1A (Rattus norvegicus, UniProt Q63470); type: biochemical, Homo sapiens
Insulin-degrading enzyme [24] = target: T4, Insulin-degrading enzyme; assay: activators of recombinant IDE enzyme, dose response, counter-screen for IDE activator project, biochemical, fluorescence polarization (AID 588681)
[25] = target: T6, Ubiquitin-conjugating enzyme E2 N (Homo sapiens, UniProt P61088); type: functional
T6 sequence (P61088 whole entry): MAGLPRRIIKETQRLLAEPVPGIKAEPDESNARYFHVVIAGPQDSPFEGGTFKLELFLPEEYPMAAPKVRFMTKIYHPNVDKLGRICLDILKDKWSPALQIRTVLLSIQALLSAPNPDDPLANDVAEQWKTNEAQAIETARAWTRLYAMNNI

[26] = target: T6, Ubiquitin-conjugating enzyme E2 N; type: functional; remark: listed apart in the source
INS1 = assay: beta cell apoptosis inhibitors, cytokine rescue, dose response, luminescence, retest (AID 449756); type: functional, cell-based; conditions: Rattus norvegicus;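 note: cell death triggered by IL-1 beta plus TNF-alpha plus IFN-gamma mixture; protective hits raise ATP signal compared with cytokine alone wells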

Sequence of Sphingosine 1-phosphate receptor 4 (O95977 whole entry): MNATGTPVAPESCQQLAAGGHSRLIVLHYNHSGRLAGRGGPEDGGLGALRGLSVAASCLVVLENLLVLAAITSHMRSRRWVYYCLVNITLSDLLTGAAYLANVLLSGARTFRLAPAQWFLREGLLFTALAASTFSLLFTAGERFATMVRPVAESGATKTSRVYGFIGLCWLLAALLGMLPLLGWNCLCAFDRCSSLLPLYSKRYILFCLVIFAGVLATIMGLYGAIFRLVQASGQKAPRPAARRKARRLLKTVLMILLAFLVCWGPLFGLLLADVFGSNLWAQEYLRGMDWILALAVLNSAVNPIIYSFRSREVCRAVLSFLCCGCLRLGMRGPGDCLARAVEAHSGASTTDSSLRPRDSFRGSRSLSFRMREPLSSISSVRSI
Sequence of Sphingosine 1-phosphate receptor 1 (P21453 whole entry): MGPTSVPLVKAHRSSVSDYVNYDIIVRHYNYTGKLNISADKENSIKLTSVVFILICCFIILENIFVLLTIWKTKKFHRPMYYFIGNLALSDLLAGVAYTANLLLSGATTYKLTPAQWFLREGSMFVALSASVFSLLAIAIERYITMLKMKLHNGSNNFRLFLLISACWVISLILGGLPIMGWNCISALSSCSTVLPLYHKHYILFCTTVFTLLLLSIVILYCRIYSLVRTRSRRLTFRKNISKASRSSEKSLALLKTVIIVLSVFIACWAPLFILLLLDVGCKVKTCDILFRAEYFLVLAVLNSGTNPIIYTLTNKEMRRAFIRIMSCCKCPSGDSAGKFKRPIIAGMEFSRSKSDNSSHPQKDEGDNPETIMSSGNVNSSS
Sequence of Beta Lactamase (Q932Y6 whole entry, the tested form may be a part): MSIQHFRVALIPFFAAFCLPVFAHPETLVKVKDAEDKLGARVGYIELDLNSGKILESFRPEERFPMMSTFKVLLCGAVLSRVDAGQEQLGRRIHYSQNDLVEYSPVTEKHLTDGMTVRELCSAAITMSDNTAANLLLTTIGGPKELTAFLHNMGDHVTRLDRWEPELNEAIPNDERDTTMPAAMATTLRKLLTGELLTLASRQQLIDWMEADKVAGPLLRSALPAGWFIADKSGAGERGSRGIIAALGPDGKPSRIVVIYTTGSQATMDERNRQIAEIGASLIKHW
Sequence of DNA damage-inducible transcript 3 protein (P35639 whole entry): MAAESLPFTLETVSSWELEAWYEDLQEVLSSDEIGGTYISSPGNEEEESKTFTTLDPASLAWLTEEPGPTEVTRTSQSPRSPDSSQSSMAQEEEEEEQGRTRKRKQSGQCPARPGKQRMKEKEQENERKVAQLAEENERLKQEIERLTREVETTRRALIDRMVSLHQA
Sequence of Large T antigen (P03070 whole entry): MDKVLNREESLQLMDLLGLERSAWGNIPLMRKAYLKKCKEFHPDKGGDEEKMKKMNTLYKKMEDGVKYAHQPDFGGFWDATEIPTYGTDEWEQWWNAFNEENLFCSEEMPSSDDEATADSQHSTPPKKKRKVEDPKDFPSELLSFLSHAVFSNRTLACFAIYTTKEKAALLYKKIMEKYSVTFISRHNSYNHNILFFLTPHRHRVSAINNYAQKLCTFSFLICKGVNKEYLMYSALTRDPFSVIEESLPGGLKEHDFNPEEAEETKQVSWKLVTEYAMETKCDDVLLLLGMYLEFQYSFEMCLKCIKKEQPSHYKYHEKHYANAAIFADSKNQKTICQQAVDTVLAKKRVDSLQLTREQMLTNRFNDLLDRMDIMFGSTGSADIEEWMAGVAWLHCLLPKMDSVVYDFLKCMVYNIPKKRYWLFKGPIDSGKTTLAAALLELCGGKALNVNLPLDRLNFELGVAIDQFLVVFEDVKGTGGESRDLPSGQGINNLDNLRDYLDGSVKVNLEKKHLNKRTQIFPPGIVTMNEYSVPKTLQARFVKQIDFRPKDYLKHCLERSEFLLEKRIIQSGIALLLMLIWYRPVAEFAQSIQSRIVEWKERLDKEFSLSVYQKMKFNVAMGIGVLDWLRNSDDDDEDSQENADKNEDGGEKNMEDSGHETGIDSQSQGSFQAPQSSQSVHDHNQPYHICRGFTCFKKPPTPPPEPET
Sequence of Apoptotic protease-activating factor 1 (O14727 whole entry): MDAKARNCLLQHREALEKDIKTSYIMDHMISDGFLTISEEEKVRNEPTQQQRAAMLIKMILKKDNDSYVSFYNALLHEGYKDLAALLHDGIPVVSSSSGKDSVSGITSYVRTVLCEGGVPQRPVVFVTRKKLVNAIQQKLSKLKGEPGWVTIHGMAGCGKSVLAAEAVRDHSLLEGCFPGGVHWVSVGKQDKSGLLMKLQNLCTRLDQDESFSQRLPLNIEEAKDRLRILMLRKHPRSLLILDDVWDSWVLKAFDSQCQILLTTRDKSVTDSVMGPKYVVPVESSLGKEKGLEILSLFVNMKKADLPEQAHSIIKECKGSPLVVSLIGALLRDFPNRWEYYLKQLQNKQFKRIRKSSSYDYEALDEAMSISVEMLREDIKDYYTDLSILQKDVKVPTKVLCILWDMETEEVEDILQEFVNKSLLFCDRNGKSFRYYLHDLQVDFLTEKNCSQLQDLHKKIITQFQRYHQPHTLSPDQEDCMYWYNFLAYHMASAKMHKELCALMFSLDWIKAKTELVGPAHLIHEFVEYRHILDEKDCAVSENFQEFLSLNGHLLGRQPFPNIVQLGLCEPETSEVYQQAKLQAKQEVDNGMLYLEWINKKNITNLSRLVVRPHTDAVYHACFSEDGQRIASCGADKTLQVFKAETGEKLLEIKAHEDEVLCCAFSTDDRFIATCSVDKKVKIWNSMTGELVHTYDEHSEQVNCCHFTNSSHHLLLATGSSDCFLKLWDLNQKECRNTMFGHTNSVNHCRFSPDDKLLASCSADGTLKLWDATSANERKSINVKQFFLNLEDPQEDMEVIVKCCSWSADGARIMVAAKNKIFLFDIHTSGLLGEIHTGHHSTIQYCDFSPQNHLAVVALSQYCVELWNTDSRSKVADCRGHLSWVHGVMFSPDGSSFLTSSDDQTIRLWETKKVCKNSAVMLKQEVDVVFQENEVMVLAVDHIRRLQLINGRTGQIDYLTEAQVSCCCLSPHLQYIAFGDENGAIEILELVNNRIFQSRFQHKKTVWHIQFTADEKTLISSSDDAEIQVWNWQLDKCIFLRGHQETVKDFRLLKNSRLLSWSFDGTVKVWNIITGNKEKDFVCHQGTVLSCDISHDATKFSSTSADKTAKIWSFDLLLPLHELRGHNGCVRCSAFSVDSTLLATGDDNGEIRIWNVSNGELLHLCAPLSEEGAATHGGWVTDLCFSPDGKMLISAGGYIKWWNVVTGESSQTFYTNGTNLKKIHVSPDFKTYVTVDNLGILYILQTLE

Structure (SMILES): CS(=O)(=O)c1nc(-c2ccccc2)cc(C(F)(F)F)n1
- EC50 (Protein RecA): 5.53 µM (active)
- EC50 [1]: 4.8 µM (active)
- IC50 [2]: 1.09 µM (active)
- EC50 [3]: 2.21 µM (active)
- IC50 [4]: 16.7 µM (not active)
- EC50 [5]: 2.55 µM (active)
- CC50 [6]: 30.7 µM (active)
- AC50 [7]: 4.91 µM (active)
- AC50 [8]: 7.07 µM (active)
- AC50 [9]: 16 µM (active)
- AC50 [10]: 1.53 µM (active)
- EC50 [11]: 4.36 µM (active)
- EC50 [12]: 8.84 µM (inconclusive)
- IC50 (Beta Lactamase): 29.1 µM (inactive)
- IC50 (CHO): 3.23 µM (active)
- Absolute IC50 (CHOP) [13]: 10 µM

Structure (SMILES): CCCCCCCCCCCCCCCC[N+](C)(C)CCN(Cc1ccc(OC)cc1)c1ncccn1 [THONZONIUM BROMIDE]
- IC50 [14]: > 10 µM (inactive)
- IC50 [15]: > 40 µM (inactive)
- IC50 [16]: 17.8 µM (inactive)
- EC50 (Insulin-degrading enzyme [17]): > 54.7 µM (inactive)
- IC50 (HEK293 [18]): 5.21 µM (active)
- IC50 [19]: > 10 µM (inactive)
- IC50 [20]: 8.37 µM (active)
- IC50 (Large T antigen): 15.4 µM (active)
- AC50 [21]: 6.06 µM (active)
- EC50 (HEK293 [22]): > 55.9 µM (inactive)
- IC50 (Bcl-2-related protein A1): 6.44 µM (active)
- AC50 [23]: 9.42 µM (active)
- EC50 (Insulin-degrading enzyme [24]): 53.3 µM (inactive)
- IC50 [25]: 2.86 µM (active)
- IC50 [26]: 2.99 µM (active)
- AC50 (INS1): 2.54 µM (active)
